According to patent US20260027243A1, “AMPHIPHILIC COMPOUNDS FOR ATTENUATING NEUROTOXICITY OF AMYLOID-beta OLIGOMERS AND DIAGNOSTIC METHODS” (THE BOARD OF TRUSTEES OF THE UNIVERSITY OF ILLINOIS, priority 2022, published 2026):
Where two headings read alike, the source gives them in different places.

Key:
Aβ42 oligomers = molecular target: T1, Aβ42 oligomers (Homo sapiens, UniProt P05067); experiment: Fluorescence saturation binding assay with Aβ42 oligomers; conditions: for Kd: read-out: Kd, Oligomers
T1 construct: commercial Aβ42 monomer powder (from GL biochem); purchased GL biochem
Experimental: Aβ42 oligomers: The 0.5 mg monomeric films were dissolved in 1.1 mL PBS buffer (with final DMSO concentration less than 1%) and incubated at 4° C. overnight. The resulting solution was then centrifuged at 3000 rpm for 15 mins to remove the insoluble aggregates. The clear supernatant was then used for the following experiments. Aβ42 oligomers concentration was checked by measuring the absorbance of the supernatant at 280 nm.
(§1) In Vitro Saturation Binding Studies with Aβ42 Fibrils and Aβ42 Oligomers. To a solution of increasing concentrations of compounds, a fixed concentration of the generated aggregated Aβ42 fibrils or Aβ42 oligomers solutions (5 to 15 NM) was added to yield a total volume of 100 μL. Nonspecific binding was determined […]. The mixture was incubated for 15 min at room temperature. All fluorescence data were obtained on a SpectraMax M2e plate reader (Molecular Devices). The fluorescent intensity was measured at the corresponding emission wavelength of each compound, and the Kd binding curves were generated by GraphPad Prism 8.0 with one site-specific binding model. Equation: Y=Bmax*X/(Kd+X).

[1] = tested on: Cu^2+-Aβ42-induced toxicity in Neuro2A cells; experiment: Cu2+-Aβ42-induced toxicity, Alamar blue cell viability; format: cell-based, mouse; conditions: [Aβ42]=40 μM, [Cu^2+]=40 μM, compound 10 μM (ZY-12-OMe 5 μM)
Experimental: FIG. 6. Cell viability results upon incubation of Neuro2A cells with monomeric Aβ42 in the presence or absence of metal ions and amphiphilic compounds. Concentrations: [Aβ42]=40 μM, [Cu^2+]=40 μM, [ZY-12-MT]=[ZY-15-OMe]=[ZY-15-MT]=[ZY-17-MT]=[ZY-5-OMe]=[ZY-5-MT]=[ZY-5-DT]=10 μM, [ZY-12-OMe]=5 μM. The error bars represent the standard deviation from five independent experiments, and the statistical analysis was evaluated according to one-way ANOVA (*p<0.05).
For the Cu^2+-Ap-induced toxicity studies, cells treated were monomeric Aβ42, Cu^2+, monomeric Aβ42+Cu^2+, and monomeric Aβ42+Cu^2++ compounds, respectively. After 40 h incubation, Alamar Blue solution (10 μL) was added, and the cells were incubated for another 90 min at 37° C. The fluorescence intensity of each well was measured at 590 nm (excitation wavelength=560 nm).

[2] = tested on: interactions between Cu-Aβ species and SH-SY5Y cell membranes; experiment: Confocal imaging of Cu-Aβ species binding to SH-SY5Y cell membranes; format: cell-based, human; conditions: 5 μM Aβ monomers + Cu^2+ + compound, 48 h
Experimental: For monomers +Cu^2+ imaging: SH-5Y5Y were seeded as mentioned above, and cells were treated with DMSO as control group, 5 μM monomers, 5 μM (monomers +CuCl2) and 5 μM (monomers +CuCl2+compounds) respectively. After 48 h incubation, cells were treated and imaged the same way as mentioned above.

Aβ42 fibrils = molecular target: T2, Aβ42 fibrils (Homo sapiens, UniProt P05067); experiment: Fluorescence saturation binding assay with Aβ42 fibrils; conditions: read-out: Kd, Fibrils
T2 construct: commercial Aβ42 monomer powder (from GL biochem); purchased GL biochem
Experimental: Preparation of the Aβ42 Fibrils and Aβ42 Oligomers. Aβ42 fibrils: 1 mg of commercial Aβ42 monomer powder (from GL biochem) was dissolved in 1 mL 1,1,1,3,3,3-hexafluoro-2-propanol (HFIP) at room temperature and incubated for 1 h. The resulting solution was divided equally into two Eppendorf tubes. The solution in each Eppendorf tube containing 0.5 mg Aβ42 monomer was then evaporated overnight and dried by vacuum centrifuge to generate monomeric films. […] Aβ42 fibrils solution was prepared by dissolving the 0.5 mg monomeric films in 1.1 mL PBS buffer (with final DMSO concentration less than 1%) and stirring at 37° C. for 3 days.
as §1

[3] = tested on: interactions between Aβ oligomers and SH-SY5Y cell membranes; experiment: Confocal imaging of Aβ oligomers binding to SH-SY5Y cell membranes; format: cell-based, human; conditions: 5 μM Aβ oligomers, 5 μM compound, 24 h
Experimental: (§2) Cell Imaging Procedures. For oligomers and fibrils imaging: Human neuroblastoma SH-SY5Y cells were grown with DMEM/10% FBS at 37° C. in a humidified atmosphere with 5% CO2, and an 8-well μ-slides (ibidi) chambered coverslip was seeded the SH-SY5Y cells. At about 80% confluency (24 h after seeding), the cells were treated with DMSO as control group, 5 μM oligomers/fibrils and 5 μM (oligomers/fibrils+ compounds), respectively. After 24 h incubation, the media was removed from each well. The cells were then fixed with 200 μL 3.7% formaldehyde for 15 min and blocked with 200 μL 3% BSA for 10 min. 3% BSA was then removed from the cells and replaced with 100 μL CF594-HJ 3.4 (1 μg/mL in 3% BSA). The cells were incubated with CF594-HJ 3.4 for 2 h at room temperature and were washed with PBS (5×100 μL). Before imaging, the cells in each well were stained with 100 μL NucBlue reagent (Thermo Fisher Scientific) for 15 min and mounted with non-fluorescent mounting media. 5-10 images of each well were taken, and the images were processed and analyzed by Fiji and Zeiss Zen lite software. Three individual replicates were conducted and subjected to the statistical analysis.

[4] = tested on: interactions between Aβ fibrils and SH-SY5Y cell membranes; experiment: Confocal imaging of Aβ fibrils binding to SH-SY5Y cell membranes; format: cell-based, human; conditions: 5 μM fibrils, 5 μM compound, 24 h
Experimental: as §2

[5] = tested on: native Aβ aggregates in AD mice brain; experiment: BBB permeability: in vivo accumulation after intraperitoneal treatment, brain section colocalization; parameters: species or system mouse; conditions: 12-month-old AD mice, 0.1 mg/Kg, 10 days
Experimental: FIG. 13. In vivo accumulation of DCM-OH-2-DT. Fluorescence microscopy images of brain sections from 12-month-old 5×FAD mice administered with DCM-OH-2-DT for 10 days. The brain sections were stained with Thioflavin S (ThS); [ThS]=5 μM, scale bar=125 μm.
Fluorescence Imaging of 5×FAD Mouse Brain Sections and blood-brain barrier (BBB) permeability. To confirm the developed compounds can also bind to native Aβ aggregates, we performed fluorescence imaging studies and colocalization experiments on 5×FAD mouse brain sections. […] This further supports that the compounds are selective and can bind to native soluble Aβ oligomers. Before investigating the blood-brain barrier (BBB) permeability of the developed compounds, their neurotoxicity was measured first (FIG. 12). […] DCM-OH-2 leads to less than 80% cell viability even at 2 μM, which is probably due to its poor solubility. Nevertheless, the DCM-OH-2-DT was chosen as the candidate to test the blood-brain barrier (BBB) permeability. 12-month-old AD mice were treated with compound DCM-OH-2-DT (0.1 mg/Kg) for 10 days via intraperitoneal injection. At the end of treatment, mice brains were harvested and colocalization experiments were performed on the mice brain sections.

[6] = Log D by octanol-PBS partition; format: physicochemical; conditions: DCM compounds
Experimental: Log D measurements. The Log D value was measured following a published procedure using slight modifications. In general, compounds in 0.5 mL octanol was subjected to partition with 0.5 mL octanol-saturated PBS. The whole mixture was stirred vigorously for 5 min, and centrifuged at 2,000 rpm for 5 min. The top octanol layer was separated for later fluorescence measurement. The remaining PBS layer was partitioned with 0.5 mL PBS-saturated octanol, and the second top octanol layer was then separated after vigorous stirring and centrifuging at 2,000 rpm for another 5 min. The two octanol layers' fluorescence spectra were recorded. The log D value was calculated by the fluorescence intensity ratio at the compounds' emission wavelength for the above two octanol extractions.

[7] = molecular target: T3, native Aβ species in 5×FAD mice brain sections (Homo sapiens, UniProt P05067); experiment: Fluorescence staining of 5×FAD mice brain sections, colocalization; parameters: species or system mouse; conditions: 5×FAD brain sections, compared with ThS
T3 construct: from tissue; host or cells: brain sections of 5×FAD transgenic mice
Experimental: Histological Staining of 5×FAD Mice Brain Sections. 5×FAD transgenic mice brain sections were blocked with bovine serum albumin (2% BSA in PBS, pH 7.4, 10 min). Then the mice brain sections were transferred to a PBS solution of the compound and incubated for 1 h. […] Then, the brain sections were treated with BSA again (5 min) followed by washing with PBS (3×2 min), DI water (3×2 min). Finally, the mice brain sections were mounted with non-fluorescent mounting media, and the images were obtained by using EVOS FL Auto 2. ImageJ Fiji program was used for colocalization analysis and determination of the Pearson's correlation coefficient. The primary antibodies were labeled with dye CF594 via Mix-n-Stain™ CF™ 594 Antibody Labeling Kit (Sigma Aldrich).

[8] = molecular target: T4, Aβ42 fibrils and oligomers (Homo sapiens, UniProt P05067); experiment: Fluorescence turn-on with Aβ42 fibrils and oligomers; format: binding
T4 construct: commercial Aβ42 monomer powder (from GL biochem); purchased GL biochem
Experimental: Fluorescence Spectral Testing of Compounds with Aps2 Fibrils and Aβ42 Oligomers. The formation of Aβ42 fibrils and oligomers was confirmed by the ThT fluorescence turn-on assay. The fluorescence spectra of ThT in PBS (100 μL PBS, 10.0 μM) were recorded as the baseline. After that, either Aβ42 fibrils or oligomers were added to ThT in PBS. The final volume of the solution mixture should be 100 μL, in which the final concentrations of ThT and Aβ42 species were10. μM and 25 μM, respectively.
For the interactions between Aps and compounds, the fluorescence spectra of the compounds' solution (100 μL PBS, 5.0 μM) were recorded as the baseline without adding various Aβ42 species.
After that, either Aβ42 fibrils or oligomers were added to the compounds' solutions in PBS. The final volume of the solution mixture should be 100 μL, in which the final concentrations of the compound and Aβ42 species were 5. μM and 25 μM, respectively.

[9] = tested on: brain region of 5×FAD mice vs. WT mice; experiment: Real-time in vivo NIR fluorescence imaging; parameters: species or system mouse; conditions: 5 mg/kg
Experimental: DCM-OH-2-DT was chosen as the best candidate for real-time in vivo fluorescence imaging studies. Seven-month-old AD mice and age-matched wild type (WT) mice were injected with the compound at 5 mg/kg. The NIR fluorescence intensities from the brain region were collected and analyzed over time. […] These imaging results further support the potential in vivo application of the developed compounds.
In vivo Imaging Studies. The real-time in vivo fluorescence imaging studies were performed with IVIS imaging system. 7-month-old 5×FAD mice (n=3) and age-matched control B6SJLF1/J mice (n=3) were shaved at the brain region before background imaging. All mice were injected with DCM-OH-2-DT (5 mg/kg, 15% DMSO, 85% PBS) via jugular vein injection. The mice were kept on the imaging stage under anesthesia with 2.5% isoflurane gas in an oxygen flow (1.5 L/min) before the imaging and were woken up after the imaging. Fluorescence signals from the brain were recorded at 5-, 15-, 30-, 60-min after the injection of DCM-OH-2-DT with a filter set (excitation at 470 nm and emission at 740 nm). Imaging data was analyzed by Living Image software, and an ROI was drawn around the brain region. The data were analyzed by subtracting the background fluorescence intensity of each mouse. P values were calculated by Student's t test.

T2 sequence (P05067 672-713 limits assumed): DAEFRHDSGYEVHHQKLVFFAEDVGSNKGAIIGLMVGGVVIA
T1 sequence (P05067 672-713 limits assumed): as above
T3 sequence (P05067 672-713 limits assumed): as above
T4 sequence (P05067 672-713 limits assumed): as above

Row | SMILES | Kd (Aβ42 oligomers; Table 1, amphiphilic compounds) [µM] | effect on cell viability under Cu^2+-Aβ42 toxicity [1] | Cu-Aβ species interactions with cell membranes [2] | Kd (Aβ42 fibrils; Table 1, amphiphilic compounds) [µM] | Aβ oligomers bound to cell membranes [3] | Aβ fibrils binding to cell membranes [4] | colocalization with ThS after in vivo administration [5] | Kd (Aβ42 oligomers; Table 3, DCM compounds) [µM] | Kd (Aβ42 fibrils; Table 3, DCM compounds) [µM] | logD [6] | region of Aβ aggregates bound [7] | maximum emission wavelength when binding to Aβ aggregates [8] [nm] | time to maximum brain NIR fluorescence signal after injection ([9]; jugular vein injection) | brain fluorescence signal, AD mice vs WT mice ([9]; 7-month-old mice, 5-, 15-, and 30-min post injection) | binding affinity to oligomers compared with fibrils (Kd comparison) (Aβ42 oligomers; amphiphilic ZY compounds) | binding affinity towards Aβ42 oligomers over fibrils (Aβ42 oligomers; DCM compounds)
1 | CN1CCN(C)CCN(Cc2cc(/C=C/c3ccc(-c4ccc(C=O)cc4)s3)ccc2O)CC1 [ZY-15-MT, (E)-4-(5-(3-((4,7-dimethyl-1,4,7-triazonan-1-yl)methyl)-4-hydroxystyryl)thiophen-2-yl)benzaldehyde] | 2.03 ± 0.11 | significantly increase cell viability | significantly decreased interactions with cell membranes | 0.53 ± 0.03 | fewer numbers of Aβ oligomers bound to the cell membranes | not able to significantly decrease the numbers of the Aβ fibrils binding to cell membranes |  |  |  |  |  |  |  |  |  | 
2 | CN1CCN(C)CCN(Cc2cc(/C=C/C=C/C3=CC(=C(C#N)C#N)c4ccccc4O3)cc(CN3CCN(C)CCN(C)CC3)c2O)CC1 [DCM-OH-2-DT, 2-(2-((1E,3E)-4-(3,5-bis((4,7-dimethyl-1,4,7-triazonan-1-yl)methyl)-4-hydroxyphenyl)buta-1,3-dien-1-yl)-4H-chromen-4-ylidene)malononitrile] |  |  |  |  |  |  | good colocalization with ThS | 0.43 ± 0.06 | 0.5 ± 0.11 | 1.2 ± 0.07 | bind to the peripheral region of the Aβ aggregates | 730 | about 15 min | significantly higher fluorescence signal in AD mice |  | 
3 | COc1cc(/C=C/c2ccc(-c3ccc(C=O)cc3)s2)cc(CN2CCN(C)CCN(C)CC2)c1O [ZY-15-OMe, (E)-4-(5-(3-((4,7-dimethyl-1,4,7-triazonan-1-yl)methyl)-4-hydroxy-5-methoxystyryl)thiophen-2-yl)benzaldehyde] | 0.47 ± 0.13 | significantly increase cell viability | significantly decreased interactions with cell membranes | 1.24 ± 0.18 | fewer numbers of Aβ oligomers bound to the cell membranes | not able to significantly decrease the numbers of the Aβ fibrils binding to cell membranes |  |  |  |  |  |  |  |  | higher binding affinity to oligomers over fibrils | 
4 | CN1CCN(C)CCN(Cc2cc(/C=C/C=C/C3=CC(=C(C#N)C#N)c4ccccc4O3)ccc2O)CC1 [DCM-OH-2-MT, 2-(2-((1E,3E)-4-(3-((4,7-dimethyl-1,4,7-triazonan-1-yl)methyl)-4-hydroxyphenyl)buta-1,3-dien-1-yl)-4H-chromen-4-ylidene)malononitrile] |  |  |  |  |  |  |  | 0.23 ± 0.03 | 0.78 ± 0.11 | 1.13 ± 0.16 | bind to the peripheral region of the Aβ aggregates |  |  |  |  | three times higher binding affinity towards Aβ42 oligomers over fibrils
